Results taken from article PMC12735872, “Development of ^18F/^11C-Labeled Pyrrolo-Pyridine/Pyrimidine LRRK2 Selective PET Radioligands” (Pharmaceuticals, 2025).

Columns and labels:
cynomolgus monkey brain = experiment: In vivo PET imaging in cynomolgus monkeys; design: VT/fp: unit not given beside the values; VT: unit not given here
Source text: PET measurements were led using a high-resolution research tomograph (HRRT) from Siemens Molecular Imaging (Knoxville, TN, USA). List mode data were reconstructed using the ordinary Poisson-3D-ordered subset expectation maximization (OP-3D-OSEM) algorithm, with 10 repetitions and 16 subsets while modeling the point spread function (PSF). The in-plane resolution accomplished with OP-3D-OSEM and PSF was 1.5 mm full width at half maximum (FWHM) at the center of the field of view (FOV) and 2.4 mm at 10 cm off-center.
The study was approved by the Animal Ethics Committee of the Swedish Animal Welfare Agency and was performed according to “Guidelines for planning, conducting and documenting experimental research” (Dnr 5.2.18-4170/14 issued on 11 April 2014) of the KI as well as the “Guide for the Care and Use of Laboratory Animals” [26]. NHPs were supplied by the Astrid Fagraeus Laboratory (AFL) of the Swedish Institute for Infectious Disease Control (SMI), Solna, Sweden. Anesthesia was brought by intramuscular injection of ketamine hydrochloride (approximately 10 mg/kg) at AFL and continued with a mixture of sevoflurane (0–8.0%), oxygen, and medical air through endotracheal intubation at the KI PET center. The NHP head was immobilized using a homemade fixation device. Body temperature was maintained with a Bair Hugger model 505 (Arizant Healthcare, Eden Prairie, MN, USA) and monitored via an esophageal thermometer. ECG, heart rate, respiratory rate, blood pressure, and oxygen saturation were continuously examined throughout the experiments. The fluid balance was retained with continuous infusion of saline.
A 6 min transmission scan was performed before the injection of the radioligand using a single Cs-137 source. List mode data was acquired continuously for 93 min following intravenous administration of the radioligand. Images were reconstructed into 38 frames with varying intervals: […].
For all PET measurements, radioligands were administered via intravenous injection. Regions of interest (ROIs) were manually delineated on MRI images for each NHP, for the whole brain, cerebellum, caudate, putamen, thalamus, frontal cortex, temporal cortex, amygdala, posterior cingulate cortex, anterior cingulate cortex, hippocampus, occipital cortex, parietal cortex, ventral striatum, and insula. The summed PET images over the entire duration were co-registered with the individual NHP’s MRI image. After applying the co-registration parameters to the dynamic PET data, time–activity curves were generated for each brain region for every PET measurement. The standardized uptake value (SUV) was calculated for each brain region. The total distribution volume (VT) for all three radioligands were derived using one-tissue compartment (1-TC) and two-tissue compartment (2-TC) models.
On two separate occasions, PET measurements were performed after intravenous administration of GEN-7915 or PFE-360 with a slow infusion in one NHP (NHP2). The infusion lasted for 2 min, starting 30 min before PET scanning. The pretreatment formulations were prepared by dissolving it in DMSO (5%), Kolliphor EL (15%), and PBS (80%), and the pH of the final formulation was approximately 4.5–5.0. An automated blood sampling system (ABSS) measured continuous radioactivity for the first 3 min following the radioligand injection, while manual blood samples were taken at 4, 15, 30, 60, and 90 min post-injection to measure the radioactivity and metabolism.

[1] = Radiometabolite analysis in monkey plasma (gradient HPLC); format: in vivo, cynomolgus monkey; details: baseline PET
Experimental: The technique published earlier was utilized for the analysis of radiometabolites in NHP blood plasma. During the entire PET measurement, the percentage of the injected radioligand and its corresponding radioactive metabolites and radioactivity was measured with a reverse-phase HPLC system with UV absorbance detector (λ = 254 nm) and a radioactive detector. […] The blood samples were centrifuged at 4000 rpm for 2 min to separate plasma. From the centrifuged plasma, the resulting plasma was withdrawn and spiked with 1.4 times its volume of acetonitrile before being spun at 6000 rpm for 4 min. The supernatant, collected after the spun at 6000 rpm, was diluted with 3 mL of water, which was then injected into the HPLC system. The HPLC system was constructed with an Agilent 1200 series binary pump (Agilent, Santa Clara, CA, USA), a Rheodyne 7725i (Thermo Scientific, Waltham, MA, USA) manual injection valve, a 5.0 mL loop, and an Oyokoken S-2493Z radiation detector (Oyokoken, Tokyo, Japan) fitted with 50 mm lead shielding, which houses the detector. Chromatographic separation of the radiometabolites from the unchanged radioligand was performed via gradient elution on a semi-preparative reverse-phase ACE 5 µm C18 HL column (250 × 10 mm) using a mobile phase of acetonitrile (A) and ammonium formate 0.1 M (B). A flow rate of 5.0 mL/min was utilized according to the program 0–6.0 min: (A/B) 40:60 → 90:10 v/v; 6.0–10.0 min: (A/B) 90:10 (v/v). The radioactive peak corresponding to the parent radioligand was then integrated from the data output of the HPLC column. The area of this peak was calculated relative to the total area detected for all radioactive compounds. To evaluate the radioactivity recovery from the system, the measurement was taken from a 2 mL aliquot of the eluate taken from the HPLC column and measured against the total injected radioactivity.

[2] = ACC, 1-TC model, pretreatment GEN-7915 (40 mg/kg)
[3] = ACC, 1-TC model, pretreatment PFE-360 (0.5 mg/kg)
[4] = ACC, 2-TC model, pretreatment GEN-7915 (40 mg/kg)
[5] = ACC, 2-TC model, pretreatment PFE-360 (0.5 mg/kg)
[6] = AMY, 1-TC model, pretreatment GEN-7915 (40 mg/kg)
[7] = AMY, 1-TC model, pretreatment PFE-360 (0.5 mg/kg)
[8] = AMY, 2-TC model, pretreatment GEN-7915 (40 mg/kg)
[9] = AMY, 2-TC model, pretreatment PFE-360 (0.5 mg/kg)
[10] = CAU, 1-TC model, pretreatment GEN-7915 (40 mg/kg)
[11] = CAU, 1-TC model, pretreatment PFE-360 (0.5 mg/kg)
[12] = CAU, 2-TC model, pretreatment GEN-7915 (40 mg/kg)
[13] = CAU, 2-TC model, pretreatment PFE-360 (0.5 mg/kg)
[14] = CB, 1-TC model, pretreatment GEN-7915 (40 mg/kg)
[15] = CB, 1-TC model, pretreatment PFE-360 (0.5 mg/kg)
[16] = CB, 2-TC model, pretreatment GEN-7915 (40 mg/kg)
[17] = CB, 2-TC model, pretreatment PFE-360 (0.5 mg/kg)
[18] = FC, 1-TC model, pretreatment GEN-7915 (40 mg/kg)
[19] = FC, 1-TC model, pretreatment PFE-360 (0.5 mg/kg)
[20] = FC, 2-TC model, pretreatment GEN-7915 (40 mg/kg)
[21] = FC, 2-TC model, pretreatment PFE-360 (0.5 mg/kg)
[22] = PUT, 1-TC model, pretreatment GEN-7915 (40 mg/kg)
[23] = PUT, 1-TC model, pretreatment PFE-360 (0.5 mg/kg)
[24] = PUT, 2-TC model, pretreatment GEN-7915 (40 mg/kg)
[25] = PUT, 2-TC model, pretreatment PFE-360 (0.5 mg/kg)
[26] = THA, 1-TC model, pretreatment GEN-7915 (40 mg/kg)
[27] = THA, 1-TC model, pretreatment PFE-360 (0.5 mg/kg)
[28] = THA, 2-TC model, pretreatment GEN-7915 (40 mg/kg)
[29] = THA, 2-TC model, pretreatment PFE-360 (0.5 mg/kg)

C[C@@H]1C[C@@H]([18F])CN1c1c(C#N)c2c(N)nccc2n1C [[^18F]1, 4-Amino-2-((2R,4R)-4-[^18F]fluoro-2-methylpyrrolidin-1-yl)-1-methyl-1H-pyrrolo[3,2-c]pyridine-3-carbonitrile]
VT (cynomolgus monkey brain; ACC, 1-TC model, Baseline): 6.03 | VT/fp (cynomolgus monkey brain; ACC, 1-TC model, Baseline): 17.7 | VT (cynomolgus monkey brain; [2]): 8.50 | VT/fp (cynomolgus monkey brain; [2]): 20.9 | VT (cynomolgus monkey brain; [3]): 9.28 | VT/fp (cynomolgus monkey brain; [3]): 20.2 | VT (cynomolgus monkey brain; ACC, 2-TC model, Baseline): 6.04 | VT (cynomolgus monkey brain; [4]): 8.71 | VT/fp (cynomolgus monkey brain; [4]): 21.4 | VT (cynomolgus monkey brain; [5]): 9.39 | VT/fp (cynomolgus monkey brain; [5]): 20.4 | VT (cynomolgus monkey brain; AMY, 1-TC model, Baseline): 6.15 | VT/fp (cynomolgus monkey brain; AMY, 1-TC model, Baseline): 18.1 | VT (cynomolgus monkey brain; [6]): 7.29 | VT/fp (cynomolgus monkey brain; [6]): 17.9 | VT (cynomolgus monkey brain; [7]): 7.56 | VT/fp (cynomolgus monkey brain; [7]): 16.4 | VT (cynomolgus monkey brain; AMY, 2-TC model, Baseline): 6.23 | VT/fp (cynomolgus monkey brain; AMY, 2-TC model, Baseline): 18.3 | VT (cynomolgus monkey brain; [8]): 7.36 | VT/fp (cynomolgus monkey brain; [8]): 18.1 | VT (cynomolgus monkey brain; [9]): 7.78 | VT/fp (cynomolgus monkey brain; [9]): 16.9 | VT (cynomolgus monkey brain; CAU, 1-TC model, Baseline): 5.83 | VT/fp (cynomolgus monkey brain; CAU, 1-TC model, Baseline): 17.2 | VT (cynomolgus monkey brain; [10]): 7.78 | VT/fp (cynomolgus monkey brain; [10]): 19.1 | VT (cynomolgus monkey brain; [11]): 8.50 | VT/fp (cynomolgus monkey brain; [11]): 18.5 | VT (cynomolgus monkey brain; CAU, 2-TC model, Baseline): 5.87 | VT/fp (cynomolgus monkey brain; CAU, 2-TC model, Baseline): 17.3 | VT (cynomolgus monkey brain; [12]): 7.89 | VT/fp (cynomolgus monkey brain; [12]): 19.4 | VT (cynomolgus monkey brain; [13]): 8.50 | VT/fp (cynomolgus monkey brain; [13]): 18.5 | VT (cynomolgus monkey brain; CB, 1-TC model, Baseline): 4.13 | VT/fp (cynomolgus monkey brain; CB, 1-TC model, Baseline): 12.2 | VT (cynomolgus monkey brain; [14]): 5.03 | VT/fp (cynomolgus monkey brain; [14]): 12.3 | VT (cynomolgus monkey brain; [15]): 5.67 | VT/fp (cynomolgus monkey brain; [15]): 12.3 | VT (cynomolgus monkey brain; CB, 2-TC model, Baseline): 4.41 | VT/fp (cynomolgus monkey brain; CB, 2-TC model, Baseline): 13.0 | VT (cynomolgus monkey brain; [16]): 5.08 | VT/fp (cynomolgus monkey brain; [16]): 12.5 | VT (cynomolgus monkey brain; [17]): 5.69 | VT/fp (cynomolgus monkey brain; [17]): 12.4 | VT (cynomolgus monkey brain; FC, 1-TC model, Baseline): 5.26 | VT/fp (cynomolgus monkey brain; FC, 1-TC model, Baseline): 15.5 | VT (cynomolgus monkey brain; [18]): 6.53 | VT/fp (cynomolgus monkey brain; [18]): 16.0 | VT (cynomolgus monkey brain; [19]): 7.68 | VT/fp (cynomolgus monkey brain; [19]): 16.7 | VT (cynomolgus monkey brain; FC, 2-TC model, Baseline): 5.26 | VT/fp (cynomolgus monkey brain; FC, 2-TC model, Baseline): 15.5 | VT (cynomolgus monkey brain; [20]): 6.74 | VT/fp (cynomolgus monkey brain; [20]): 16.5 | VT (cynomolgus monkey brain; [21]): 7.72 | VT/fp (cynomolgus monkey brain; [21]): 16.8 | Brain uptake (cynomolgus monkey brain; PET, iv, baseline): > 3 %ID | Brain washout (cynomolgus monkey brain; PET, iv, baseline): rapid washout | Regional distribution of brain uptake (cynomolgus monkey brain; PET, iv, baseline): regional differences in uptake | VT (cynomolgus monkey brain; PUT, 1-TC model, Baseline): 5.71 | VT/fp (cynomolgus monkey brain; PUT, 1-TC model, Baseline): 16.8 | VT (cynomolgus monkey brain; [22]): 7.56 | VT/fp (cynomolgus monkey brain; [22]): 18.6 | VT (cynomolgus monkey brain; [23]): 8.25 | VT/fp (cynomolgus monkey brain; [23]): 17.9 | VT (cynomolgus monkey brain; PUT, 2-TC model, Baseline): 5.89 | VT/fp (cynomolgus monkey brain; PUT, 2-TC model, Baseline): 17.3 | VT (cynomolgus monkey brain; [24]): 7.71 | VT/fp (cynomolgus monkey brain; [24]): 18.9 | VT (cynomolgus monkey brain; [25]): 8.25 | VT/fp (cynomolgus monkey brain; [25]): 17.9 | VT (cynomolgus monkey brain; THA, 1-TC model, Baseline): 4.80 | VT/fp (cynomolgus monkey brain; THA, 1-TC model, Baseline): 14.1 | VT (cynomolgus monkey brain; [26]): 6.05 | VT/fp (cynomolgus monkey brain; [26]): 14.9 | VT (cynomolgus monkey brain; [27]): 6.68 | VT/fp (cynomolgus monkey brain; [27]): 14.5 | VT (cynomolgus monkey brain; THA, 2-TC model, Baseline): 4.95 | VT/fp (cynomolgus monkey brain; THA, 2-TC model, Baseline): 14.6 | VT (cynomolgus monkey brain; [28]): 6.18 | VT/fp (cynomolgus monkey brain; [28]): 15.2 | VT (cynomolgus monkey brain; [29]): 6.68 | VT/fp (cynomolgus monkey brain; [29]): 14.5 | Parent compound, share of eluted plasma radioactivity ([1]; at 5 min): over 90% | Parent compound, share of eluted plasma radioactivity ([1]; at 90 min): around 10%

C[C@@H]1C[C@@H]([18F])CN1c1c(C#N)c2c(N)ncnc2n1C [[^18F]2, 4-Amino-6-((2R,4R)-4-[^18F]fluoro-2-methyl Pyrrolidin-1-yl)-7-methyl-7H-pyrrolo[2,3-d]pyrimidine-5-carbonitrile]
Brain uptake at peak (cynomolgus monkey brain; PET, iv, baseline): 3.8–4.4 %ID | Brain washout (cynomolgus monkey brain; PET, iv, baseline): fast washout | Regional distribution of brain uptake (cynomolgus monkey brain; PET, iv, baseline): relatively uniform distribution across all the brain regions | Time to reach half the peak brain level (cynomolgus monkey brain; PET, iv, baseline): ≤ 20 min | Parent compound, share of eluted plasma radioactivity ([1]; at 5 min): over 90% | Parent compound, share of eluted plasma radioactivity ([1]; at 90 min): around 10%
